# Measurements as given in patent US20100173943A1, “INSECTICIDAL COMPOSITIONS WITH IMPROVED ACTION” (BAYER CROPSCIENCE AG, priority 2007, published 2010).
# Experiments:
# [1] = system: cotton aphid (Aphis gossypii); assay: Aphis gossypii test (APHIGO spray treatment); assay type: in vivo; conditions: cotton leaves sprayed, 6 days; for pest or weed control at 20 ppm / pest or weed control at 100 ppm: Aphis gossypii, 144 h, read-out: Kill in % after 6 days a.i.; for pest or weed control at 20 ppm: 20 ppm a.i. alone; for pest or weed control at 100 ppm: 100 ppm a.i. alone
# In short: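 Cotton leaves heavily infested with aphids sprayed with active ingredient formulated in DMF/alkylaryl polyglycol ether emulsifier and diluted in water to the test concentration, with ammonium salts and/or penetrants at 1000 ppm each where required. Kill rate (%) scored after the chosen period.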
# [2] = system: green peach aphid (Myzus persicae); assay: Myzus persicae test (MYZUPE); assay type: in vivo; conditions: pepper plants sprayed, 6 days; for pest or weed control at 20 ppm: 20 ppm a.i. alone
# In short: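 Compound formulated in DMF with alkylaryl polyglycol ether emulsifier, diluted in emulsifier-containing water; ammonium salts and/or penetrants added at 1000 ppm each where required. Heavily infested pepper plants (Capsicum annuum) sprayed at desired concentration. Kill rate (%) scored after desired time; 100% = all aphids dead.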
# [3] = 20 ppm a.i. + AMS and RME 1000 ppm each
# [4] = 20 ppm a.i. + ammonium sulphate 1000 ppm
# [5] = 20 ppm a.i. + rapeseed oil methyl ester 1000 ppm
# [6] = 100 ppm a.i. + AMS and RME 1000 ppm each
# [7] = 100 ppm a.i. + ammonium sulphate 1000 ppm
# [8] = 100 ppm a.i. + rapeseed oil methyl ester 1000 ppm
# [9] = Myzus persicae, 144 h, read-out: Kill in % after 6 days a.i.
SMILES,"Kill in % after 6 days +AMS + RME [1, 3] [%]","Kill in % after 6 days +AMS [1, 4] [%]","Kill in % after 6 days +RME [1, 5] [%]","Kill in % after 6 days +AMS + RME [1, 6] [%]","Kill in % after 6 days +AMS [1, 7] [%]","Kill in % after 6 days +RME [1, 8] [%]",pest or weed control at 20 ppm [1] [%],pest or weed control at 100 ppm [1] [%],"Kill in % after 6 days +AMS + RME [2, 3] [%]","Kill in % after 6 days +AMS [2, 4] [%]","Kill in % after 6 days +RME [2, 5] [%]","pest or weed control at 20 ppm [2, 9] [%]",Kill in % after 6 days +AMS + RME ([2]; 4 ppm a.i. + AMS and RME 1000 ppm each) [%],Kill in % after 6 days +AMS ([2]; 4 ppm a.i. + ammonium sulphate 1000 ppm) [%],Kill in % after 6 days +RME ([2]; 4 ppm a.i. + rapeseed oil methyl ester 1000 ppm) [%],"pest or weed control at 4 ppm ([2]; Myzus persicae, 144 h, 4 ppm a.i. alone, read-out: Kill in % after 6 days a.i.) [%]","Kill in % after 6 days +AMS + RME [2, 6] [%]","Kill in % after 6 days +AMS [2, 7] [%]","Kill in % after 6 days +RME [2, 8] [%]","pest or weed control at 100 ppm ([2]; Myzus persicae, 144 h, 100 ppm a.i. alone, read-out: Kill in % after 6 days a.i.) [%]"
"C#CCN(Cc1ccc(Cl)nc1)C1=CC(=O)CCC1 [Compound I-36, 3-{[(6-chloropyrid-3-yl)methyl](prop-2-yn-1-yl)amino}cyclohex-2-en-1-one]",65,15,45,99,98,80,30,55,85,25,85,40,,,,,,,,
"O=C1C=C(NCc2ccc(Cl)nc2)CCC1 [Compound I-37, 3-{[(6-chloropyrid-3-yl)methyl]amino}cyclohex-2-en-1-one]",65,45,40,,,,55,,95,35,90,20,,,,,,,,
"CN(Cc1ccc(Cl)nc1)C1=CC(=O)CCC1 [Compound I-38, 3-{[(6-chloropyrid-3-yl)methyl](methyl)amino}cyclohex-2-en-1-one]",,,,55,90,70,,45,,,,,70,5,65,5,,,,
"CCN(Cc1ccc(Cl)nc1)C1=CC(=O)CCC1 [Compound I-39, 3-{[(6-chloropyrid-3-yl)methyl](ethyl)amino}cyclohex-2-en-1-one]",,,,60,45,60,,45,30,25,80,20,,,,,95,90,95,85
